Test results from ChEMBL document CHEMBL5154832, “Design, Synthesis, and Proof-of-Concept of Triple-Site Inhibitors against Aminoacyl-tRNA Synthetases” (J Med Chem, 2022).
Converted amounts (≈) assume the structure as drawn.

Columns and labels:
[1] = target: T1, Threonine--tRNA ligase (Salmonella enterica) (UniProt A0A3F3IEK2); experiment: Binding affinity to recombinant salmonella enterica threonyl-tRNA synthetase assessed as change in melting temperature at 0.1 mM by fluorescence-based thermal shift assay
T1 sequence (whole entry): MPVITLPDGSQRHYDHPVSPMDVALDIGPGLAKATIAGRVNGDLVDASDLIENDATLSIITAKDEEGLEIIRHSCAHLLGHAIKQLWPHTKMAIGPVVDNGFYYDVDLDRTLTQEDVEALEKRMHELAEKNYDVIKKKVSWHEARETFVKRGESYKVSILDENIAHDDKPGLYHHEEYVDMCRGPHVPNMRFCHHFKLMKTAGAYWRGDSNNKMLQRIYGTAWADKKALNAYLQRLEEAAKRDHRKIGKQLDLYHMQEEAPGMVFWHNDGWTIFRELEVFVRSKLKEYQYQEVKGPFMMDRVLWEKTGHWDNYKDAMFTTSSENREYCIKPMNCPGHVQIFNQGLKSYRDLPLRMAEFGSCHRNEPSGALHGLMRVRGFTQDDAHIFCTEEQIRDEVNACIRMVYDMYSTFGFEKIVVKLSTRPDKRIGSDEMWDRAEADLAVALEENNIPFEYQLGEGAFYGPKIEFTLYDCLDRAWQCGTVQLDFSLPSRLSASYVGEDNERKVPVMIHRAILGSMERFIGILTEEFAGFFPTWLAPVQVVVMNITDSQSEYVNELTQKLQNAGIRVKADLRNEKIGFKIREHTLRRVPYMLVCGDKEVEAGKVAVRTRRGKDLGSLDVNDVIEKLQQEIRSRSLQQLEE

[2] = target: T1, Threonine--tRNA ligase (Salmonella enterica); experiment: Inhibition of recombinant salmonella enterica threonyl-tRNA synthetase assessed as reduction in enzyme activity at 10 uM incubated for 20 min by Kinase Glo luminescence assay relative to control
[3] = test system: Enterococcus faecalis; experiment: Antibacterial activity against Enterococcus faecalis ATCC 29212 strain assessed as inhibition of bacterial growth incubated for 8 hrs by CLSI protocol based microdilution assay; assay type: functional
[4] = test system: Staphylococcus aureus; experiment: Antibacterial activity against Staphylococcus aureus MRSA R3708 strain assessed as inhibition of bacterial growth incubated for 8 hrs by CLSI protocol based microdilution assay; assay type: functional
[5] = test system: Salmonella enterica; experiment: Antibacterial activity against Salmonella enterica 87 strain assessed as inhibition of bacterial growth incubated for 8 hrs by CLSI protocol based microdilution assay; assay type: functional
[6] = test system: Staphylococcus aureus; experiment: Antibacterial activity against Staphylococcus aureus ATCC 29213 strain assessed as inhibition of bacterial growth incubated for 8 hrs by CLSI protocol based microdilution assay; assay type: functional
[7] = test system: Escherichia coli; experiment: Antibacterial activity against Escherichia coli acraB strain assessed as inhibition of bacterial growth incubated for 8 hrs by CLSI protocol based microdilution assay; assay type: functional
[8] = target: T2, Threonine--tRNA ligase (Salmonella enterica, UniProt A0A3F3IEK2); experiment: Inhibition of recombinant salmonella enterica threonyl-tRNA synthetase assessed as reduction in enzyme activity incubated for 20 min by Kinase Glo luminescence assay
T2 sequence (A0A3F3IEK2 whole entry): T1 sequence (whole entry)

[9] = test system: Escherichia coli; experiment: Antibacterial activity against Escherichia coli ATCC 25922 strain assessed as inhibition of bacterial growth incubated for 8 hrs by CLSI protocol based microdilution assay; assay type: functional
[10] = test system: Pseudomonas aeruginosa; experiment: Antibacterial activity against Pseudomonas aeruginosa ATCC27853 strain assessed as inhibition of bacterial growth incubated for 8 hrs by CLSI protocol based microdilution assay; assay type: functional

SMILES: C[C@@H](O)[C@H](N)C(=O)N[C@H](CNC(=O)CCn1cnc2cc(Br)c(Cl)cc2c1=O)c1cccc(-c2ccc3[nH]ccc3c2)c1
- ΔTm [1]: 8.4 °C
- inhibition [2]: 24%

SMILES: CN[C@H](CC(C)C)C(=O)N[C@H]1C(=O)N[C@@H](CC(N)=O)C(=O)N[C@H]2C(=O)N[C@H]3C(=O)N[C@H](C(=O)N[C@H](C(=O)O)c4cc(O)cc(O)c4-c4cc3ccc4O)[C@H](O)c3ccc(c(Cl)c3)Oc3cc2cc(c3O[C@@H]2O[C@H](CO)[C@@H](O)[C@H](O)[C@H]2O[C@H]2C[C@](C)(N)[C@H](O)[C@H](C)O2)Oc2ccc(cc2Cl)[C@H]1O [VANCOMYCIN]
- MIC [3]: 2 µg/mL (≈ 1.38 µM)

SMILES: CN[C@H](C(=O)N[C@@H](CNC(=O)CCn1cnc2cc(Cl)c(F)cc2c1=O)c1cccc(-c2ccccc2)c1)[C@@H](C)O
- ΔTm [1]: 22.1 °C
- MIC [4]: 32 µg/mL (≈ 55.2 µM)
- MIC [5]: ≥ 128 µg/mL
- MIC [6]: 32 µg/mL (≈ 55.2 µM)
- MIC [7]: 16 µg/mL (≈ 27.6 µM)
- IC50 [8]: 2100 nM
- MIC [3]: 32 µg/mL (≈ 55.2 µM)
- MIC [9]: ≥ 128 µg/mL
- MIC [10]: 16 µg/mL (≈ 27.6 µM)
- inhibition [2]: 73%

SMILES: CC1(C)S[C@@H]2[C@H](NC(=O)[C@H](N)c3ccccc3)C(=O)N2[C@H]1C(=O)O [AMPICILLIN]
- MIC [5]: 1 µg/mL (≈ 2.86 µM)
- MIC [7]: 1 µg/mL (≈ 2.86 µM)
- MIC [9]: 1 µg/mL (≈ 2.86 µM)
- MIC [10]: 1 µg/mL (≈ 2.86 µM)

SMILES: C[C@@H](O)[C@H](N)C(=O)N[C@@H](CNC(=O)CCn1cnc2cc(Cl)c(Cl)cc2c1=O)c1cccc(-c2ccccc2)c1
- ΔTm [1]: 23 °C
- MIC [4]: 16 µg/mL (≈ 27.5 µM)
- MIC [5]: ≥ 128 µg/mL
- MIC [6]: 32 µg/mL (≈ 54.9 µM)
- MIC [7]: 16 µg/mL (≈ 27.5 µM)
- IC50 [8]: 520 nM
- MIC [3]: 32 µg/mL (≈ 54.9 µM)
- MIC [9]: ≥ 128 µg/mL
- MIC [10]: 16 µg/mL (≈ 27.5 µM)
- inhibition [2]: > 99%

SMILES: C[C@@H](O)[C@@H](N)C(=O)N(CCCCCn1cnc2cc(Br)c(Cl)cc2c1=O)S(=O)(=O)c1cccc(-c2ccc3c(c2)CNC3=O)c1
- ΔTm [1]: 6.2 °C
- inhibition [2]: 16%

SMILES: C[C@@H](O)[C@H](N)C(=O)N[C@@H](CNC(=O)CCn1cnc2cc(Br)c(Cl)cc2c1=O)c1cccc(-c2ccc3[nH]ncc3c2)c1
- ΔTm [1]: 28 °C
- MIC [4]: ≥ 128 µg/mL
- MIC [5]: ≥ 128 µg/mL
- MIC [6]: ≥ 128 µg/mL
- MIC [7]: ≥ 128 µg/mL
- IC50 [8]: 194 nM
- MIC [3]: ≥ 128 µg/mL
- MIC [9]: ≥ 128 µg/mL
- MIC [10]: ≥ 128 µg/mL
- inhibition [2]: > 99%

SMILES: C[C@@H](O)[C@H](N)C(=O)N(CCCCOC(=O)Cn1cnc2cc(Br)c(Cl)cc2c1=O)Cc1cccc(-c2ccc3c(c2)CNC3=O)c1
- ΔTm [1]: 0 °C

SMILES: C[C@@H](O)[C@H](N)C(=O)N[C@@H](CNC(=O)CCn1cnc2cc(Cl)c(F)cc2c1=O)c1cccc(-c2ccccc2)c1
- ΔTm [1]: 22.6 °C
- MIC [4]: 32 µg/mL (≈ 56.5 µM)
- MIC [5]: ≥ 128 µg/mL
- MIC [6]: 16 µg/mL (≈ 28.3 µM)
- MIC [7]: 32 µg/mL (≈ 56.5 µM)
- IC50 [8]: 550 nM
- MIC [3]: 32 µg/mL (≈ 56.5 µM)
- MIC [9]: ≥ 128 µg/mL
- MIC [10]: 16 µg/mL (≈ 28.3 µM)
- inhibition [2]: > 99%

SMILES: C[C@@H](O)[C@H](N)C(=O)N(CCC(=O)N1CCN(CCn2cnc3cc(Br)c(Cl)cc3c2=O)CC1)Cc1cccc(-c2ccc3c(c2)CNC3=O)c1
- ΔTm [1]: 0 °C

SMILES: C[C@@H](O)[C@H](N)C(=O)N[C@@H](CNC(=O)CCn1cnc2cc(Br)c(Cl)cc2c1=O)c1cccc(-c2ccccc2)c1
- ΔTm [1]: 20.1 °C
- MIC [4]: 32 µg/mL (≈ 51 µM)
- MIC [5]: ≥ 128 µg/mL
- MIC [6]: 32 µg/mL (≈ 51 µM)
- MIC [7]: 32 µg/mL (≈ 51 µM)
- IC50 [8]: 3710 nM
- MIC [3]: 32 µg/mL (≈ 51 µM)
- MIC [9]: ≥ 128 µg/mL
- MIC [10]: 16 µg/mL (≈ 25.5 µM)
- inhibition [2]: 82%

SMILES: C[C@@H](O)[C@H](N)C(=O)N(CCC(=O)NCCn1cnc2cc(Br)c(Cl)cc2c1=O)Cc1cccc(-c2ccc3c(c2)CNC3=O)c1
- ΔTm [1]: 25.4 °C
- MIC [4]: ≥ 128 µg/mL
- MIC [5]: ≥ 128 µg/mL
- MIC [6]: ≥ 128 µg/mL
- MIC [7]: 64 µg/mL (≈ 92 µM)
- IC50 [8]: 5070 nM
- MIC [3]: 64 µg/mL (≈ 92 µM)
- MIC [9]: ≥ 128 µg/mL
- MIC [10]: 64 µg/mL (≈ 92 µM)
- inhibition [2]: 80%

SMILES: C[C@@H](O)[C@H](N)C(=O)N[C@@H](CNC(=O)CCn1cnc2cc(Br)c(Cl)cc2c1=O)c1cccc(-c2ccc3c(N)ncnc3c2)c1
- ΔTm [1]: 35.2 °C
- MIC [4]: ≥ 128 µg/mL
- MIC [5]: ≥ 128 µg/mL
- MIC [6]: ≥ 128 µg/mL
- MIC [7]: ≥ 128 µg/mL
- IC50 [8]: 480 nM
- MIC [3]: ≥ 128 µg/mL
- MIC [9]: ≥ 128 µg/mL
- MIC [10]: ≥ 128 µg/mL
- inhibition [2]: > 99%

SMILES: C[C@@H](O)[C@H](N)C(=O)N[C@H](CNC(=O)CCn1cnc2cc(Br)c(Cl)cc2c1=O)c1cccc(-c2ccc3ccccc3c2)c1
- ΔTm [1]: 4.8 °C

SMILES: C[C@@H](O)[C@H](N)C(=O)N[C@H](CNC(=O)CCn1cnc2cc(Cl)c(F)cc2c1=O)c1cccc(-c2ccccc2)c1
- ΔTm [1]: 12.1 °C
- inhibition [2]: 11%

SMILES: C[C@@H](O)[C@H](N)C(=O)NS(=O)(=O)c1cccc(-c2ccc3[nH]ncc3c2)c1
- ΔTm [1]: 29.9 °C
- MIC [4]: ≥ 128 µg/mL
- MIC [5]: ≥ 128 µg/mL
- MIC [6]: ≥ 128 µg/mL
- MIC [7]: ≥ 128 µg/mL
- IC50 [8]: 190 nM
- MIC [3]: ≥ 128 µg/mL
- MIC [9]: ≥ 128 µg/mL
- MIC [10]: ≥ 128 µg/mL
- inhibition [2]: > 99%

SMILES: C[C@@H](O)[C@H](N)C(=O)N[C@H](CNC(=O)CCn1cnc2cc(Br)c(Cl)cc2c1=O)c1cccc(-c2ccccc2)c1
- ΔTm [1]: 7 °C
- inhibition [2]: 8%

SMILES: C[C@@H](O)[C@H](N)C(=O)N[C@@H](CNC(=O)CCn1cnc2cc(Cl)c(Cl)cc2c1=O)c1cccc(-c2ccc(Cl)cc2)c1
- ΔTm [1]: 20.1 °C
- MIC [4]: 4 µg/mL (≈ 6.48 µM)
- MIC [5]: ≥ 128 µg/mL
- MIC [6]: 4 µg/mL (≈ 6.48 µM)
- MIC [7]: 8 µg/mL (≈ 13 µM)
- IC50 [8]: 3290 nM
- MIC [3]: 4 µg/mL (≈ 6.48 µM)
- MIC [9]: ≥ 128 µg/mL
- MIC [10]: 4 µg/mL (≈ 6.48 µM)
- inhibition [2]: 75%

SMILES: C[C@@H](O)[C@H](N)C(=O)N[C@H](CNC(=O)CCn1cnc2cc(Br)c(Cl)cc2c1=O)c1cccc(-c2ccc3c(N)ncnc3c2)c1
- ΔTm [1]: 29.4 °C
- IC50 [8]: 6630 nM
- inhibition [2]: 57%

SMILES: C[C@@H](O)[C@H](N)C(=O)N(CCCOC(=O)Cn1cnc2cc(Br)c(Cl)cc2c1=O)Cc1cccc(-c2ccc3c(c2)CNC3=O)c1
- ΔTm [1]: 0 °C

SMILES: C[C@@H](O)[C@H](N)C(=O)N[C@H](CNC(=O)CCn1cnc2cc(Br)c(Cl)cc2c1=O)c1cccc(-c2ccc3[nH]ncc3c2)c1
- ΔTm [1]: 10.2 °C
- inhibition [2]: 30%

SMILES: CN[C@H](C(=O)N[C@H](CNC(=O)CCn1cnc2cc(Cl)c(F)cc2c1=O)c1cccc(-c2ccccc2)c1)[C@@H](C)O
- ΔTm [1]: 7.2 °C
- inhibition [2]: 5%

SMILES: C[C@@H](O)[C@H](N)C(=O)N[C@H](CNC(=O)CCn1cnc2cc(Br)c(Cl)cc2c1=O)c1cccc(-c2ccc3c(c2)CNC3=O)c1
- ΔTm [1]: 17.9 °C
- IC50 [8]: 1860 nM
- inhibition [2]: 86%

SMILES: C[C@@H](O)[C@H](N)C(=O)N[C@H](CNC(=O)CCn1cnc2cc(Cl)c(Cl)cc2c1=O)c1cccc(-c2ccccc2)c1
- ΔTm [1]: 5 °C
